In patent US11427548B2 (Arvinas Operations, Inc., priority 2015, dated 2022):
Like-named read-outs stand apart in the source and are kept apart here.

Biological target: T1, Androgen Receptor (Homo sapiens, UniProt P10275)
T1 construct: endogenous in cells; host or cells: VCaP cells
T1 sequence (P10275 1-920): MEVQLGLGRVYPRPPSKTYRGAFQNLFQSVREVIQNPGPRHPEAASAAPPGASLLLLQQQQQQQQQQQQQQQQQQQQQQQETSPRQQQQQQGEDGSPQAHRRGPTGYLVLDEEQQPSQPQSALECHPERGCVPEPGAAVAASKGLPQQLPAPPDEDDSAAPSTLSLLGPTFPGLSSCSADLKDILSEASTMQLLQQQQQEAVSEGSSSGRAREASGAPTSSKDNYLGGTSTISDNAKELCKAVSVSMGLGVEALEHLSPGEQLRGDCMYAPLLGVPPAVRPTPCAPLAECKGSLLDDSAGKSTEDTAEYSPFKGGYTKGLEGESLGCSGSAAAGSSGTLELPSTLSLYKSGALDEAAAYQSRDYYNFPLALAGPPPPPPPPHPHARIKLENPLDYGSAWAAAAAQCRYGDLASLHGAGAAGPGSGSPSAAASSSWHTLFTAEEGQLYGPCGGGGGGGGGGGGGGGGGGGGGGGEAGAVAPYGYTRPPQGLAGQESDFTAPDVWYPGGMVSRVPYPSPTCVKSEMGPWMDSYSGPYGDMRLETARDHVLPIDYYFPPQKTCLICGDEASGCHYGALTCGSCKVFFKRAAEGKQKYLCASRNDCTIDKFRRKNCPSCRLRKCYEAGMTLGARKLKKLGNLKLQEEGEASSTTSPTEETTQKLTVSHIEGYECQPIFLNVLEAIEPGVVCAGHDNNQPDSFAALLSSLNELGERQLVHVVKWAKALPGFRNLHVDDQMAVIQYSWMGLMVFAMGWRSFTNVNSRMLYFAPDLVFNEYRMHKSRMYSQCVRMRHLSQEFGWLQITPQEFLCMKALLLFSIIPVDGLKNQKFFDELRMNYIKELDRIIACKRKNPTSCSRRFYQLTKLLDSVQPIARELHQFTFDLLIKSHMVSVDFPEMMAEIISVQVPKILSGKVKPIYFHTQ
Assay: Androgen Receptor ELISA assay (PathScan AR ELISA) in VCaP cells: AR degradation, Dmax and DC50
Assay type: cell-based
Summary of the method: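 After 24 h exposure of VCaP cells (charcoal-stripped serum, 0.1 nM R1881 agonist, 0.1% DMSO) to seven half-log compound concentrations, residual AR in lysates was measured by PathScan ELISA (TMB absorbance, 450 nm). Cells were plated at 30,000/well and grown at least 3 days beforehand.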

[1] = VCaP cells; Table 35; read-out: VCaP DC50
[2] = VCaP, VCaP cells; Table 35; read-out: VCaP Dmax (%)
[3] = VCaP cells; Table 36; read-out: VCaP DC50
[4] = VCaP, VCaP cells; Table 36; read-out: VCaP Dmax (%)

Row | DC50 [1] [nM] | Dmax [2] [%] | DC50 [3] [nM] | SMILES | further results
1 | < 50 | 26 to 50 |  | COC(=O)[C@@H]1C[C@@H](O)CN1C(=O)[C@@H](NC(=O)COCCCCCOc1ccc(C(=O)N[C@H]2C(C)(C)[C@H](Oc3ccc(C#N)c(Cl)c3)C2(C)C)cc1)C(C)(C)C [Example 519] | 
2 |  |  | < 50 | Cc1ncsc1-c1ccc([C@H](C)NC(=O)C2C[C@@H](O)CN2C(=O)C(NC(=O)CN2CCC(CCN3CCN(c4ccc(C(=O)NC5C(C)(C)C(Oc6ccc(C#N)c(Cl)c6)C5(C)C)cn4)CC3)CC2)C(C)(C)C)cc1 (stereo partly drawn) [Example 827, N-((1r,3r)-3-(3-chloro-4-cyanophenoxy)-2,2,4,4-tetramethylcyclobutyl)-6-(4-(2-(1-(2-(((S)-1-((2S,4R)-4-hydroxy-2-(((S)-1-(4-(4-methylthiazol-5-yl)phenyl)ethyl)carbamoyl)pyrrolidin-1-yl)-3,3-dimethyl-1-oxobutan-2-yl)amino)-2-oxoethyl)piperidin-4-yl)ethyl)piperazin-1-yl)nicotinamide] | Dmax [4]: > 71%
3 |  |  | < 50 | Cc1ncsc1-c1ccc([C@H](C)NC(=O)C2C[C@@H](O)CN2C(=O)[C@@H](NC(=O)COCCC2(CCNc3ccc(C(=O)N[C@H]4C(C)(C)[C@H](Oc5ccc(C#N)c(Cl)c5)C4(C)C)cc3)COC2)C(C)(C)C)cc1 (stereo partly shown) [Example 642] | Dmax [4]: > 71%
4 | > 501 | 26 to 50 |  | CC(C)(C)[C@H](NC(=O)CNCCCCCNc1ccc(C(=O)N[C@H]2C(C)(C)[C@H](Oc3ccc(C#N)c(Cl)c3)C2(C)C)cc1)C(=O)N1C[C@H](O)C[C@H]1C(=O)NCc1ccc(C#N)cc1 [Example 480] | 

More lines, now with the values behind:

Row | SMILES | DC50 [1] [nM] | Dmax [2] [%] | DC50 [3] [nM] | further results
5 | Cc1ncsc1-c1ccc(C(C)NC(=O)C2CC(O)CN2C(=O)C(NC(=O)COCCCOCCCCCOc2ccc(N3C(=S)N(c4ccc(C#N)c(C(F)(F)F)c4)C(=O)C3(C)C)cc2)C2COC2)cc1 (stereo not shown) [Example 661, 1-(2-(2-(3-((5-(4-(3-(4-cyano-3-(trifluoromethyl)phenyl)-5,5-dimethyl-4-oxo-2-thioxoimidazolidin-1-yl)phenoxy)pentyl)oxy)propoxy)acetamido)-2-(oxetan-3-yl)acetyl)-4-hydroxy-N-(1-(4-(4-methylthiazol-5-yl)phenyl)ethyl)pyrrolidine-2-carboxamide] |  |  |  | Dmax (VCaP, read-out: VCaP Dmax (%)): < 25%; DC50 (read-out: VCaP DC50; VCaP cells; Table 36): > 501 nM
6 | Cc1ncsc1-c1ccc([C@H](C)NC(=O)[C@@H]2C[C@@H](O)CN2C(=O)[C@@H](NC(=O)CN2CCC(O[C@H]3C[C@H](Nc4ccc(C(=O)N[C@H]5C(C)(C)[C@H](Oc6ccc(C#N)c(Cl)c6)C5(C)C)cc4F)C3)CC2)C(C)(C)C)cc1 [Example 706, (2S,4R)-1-((S)-2-(2-(4-((1R,3S)-3-((4-(((1r,3R)-3-(3-chloro-4-cyanophenoxy)-2,2,4,4-tetramethylcyclobutyl)carbamoyl)-2-fluorophenyl)amino)cyclobutoxy)piperidin-1-yl)acetamido)-3,3-dimethylbutanoyl)-4-hydroxy-N-((S)-1-(4-(4-methylthiazol-5-yl)phenyl)ethyl)pyrrolidine-2-carboxamide] |  |  | < 50 | Dmax (VCaP, read-out: VCaP Dmax (%), VCaP cells; Table 36): > 71%
7 | Cc1ncsc1-c1ccc(CNC(=O)[C@@H]2C[C@@H](O)CN2C(=O)[C@@H](NC(=O)COCCCCOc2ccc(-c3ccc(N4C(=S)N(c5ccc(C#N)c(C(F)(F)F)c5)C(=O)C45CCC5)cc3)cc2)C(C)(C)C)cc1 [Example 120, (2S,4R)-1-[(2S)-2-(2-{4-[4-(4-{7-[4-cyano-3-(trifluoromethyl)phenyl]-8-oxo-6-sulfanylidene-5,7-diazaspiro[3.4]octan-5-yl}phenyl)phenoxy]butoxy}acetamido)-3,3-dimethylbutanoyl]-4-hydroxy-N-{[4-(4-methyl-1,3-thiazol-5-yl)phenyl]methyl}pyrrolidine-2-carboxamide] |  |  |  | Dmax (VCaP, read-out: VCaP Dmax (%)): > 71%; DC50 (read-out: VCaP DC50; concentration that caused 50% Androgen Receptor degradation, VCaP cells (Table 32)): < 50 nM
8 | C[C@H](NC(=O)[C@@H]1C[C@@H](O)CN1C(=O)[C@@H](NC(=O)COCCCCOc1ccc(C(=O)N[C@H]2C(C)(C)[C@H](Oc3ccc(C#N)c(Cl)c3)C2(C)C)cc1)C(C)(C)C)c1ccc(C#N)cc1 [Example 548] | < 50 | 51 to 70 |  | 
